One test addresses vaccinia triphosphatase (Vaccinia virus, UniProt P04298). As to conditions: read-out: Km for ATP; cited from earlier work.
In another test the target is LEF-4 (Autographa californica nuclear polyhedrosis virus, UniProt P41477). Conditions: read-out: Km for ATP; cited from earlier work.
Test [1] has as its target T1, yeast RNA triphosphatase Cet1p (Saccharomyces cerevisiae, UniProt O13297).
T1 construct: His-tag; made in house; host or cells: Escherichia coli BL21(DE3)
T1 sequence (O13297 1-549): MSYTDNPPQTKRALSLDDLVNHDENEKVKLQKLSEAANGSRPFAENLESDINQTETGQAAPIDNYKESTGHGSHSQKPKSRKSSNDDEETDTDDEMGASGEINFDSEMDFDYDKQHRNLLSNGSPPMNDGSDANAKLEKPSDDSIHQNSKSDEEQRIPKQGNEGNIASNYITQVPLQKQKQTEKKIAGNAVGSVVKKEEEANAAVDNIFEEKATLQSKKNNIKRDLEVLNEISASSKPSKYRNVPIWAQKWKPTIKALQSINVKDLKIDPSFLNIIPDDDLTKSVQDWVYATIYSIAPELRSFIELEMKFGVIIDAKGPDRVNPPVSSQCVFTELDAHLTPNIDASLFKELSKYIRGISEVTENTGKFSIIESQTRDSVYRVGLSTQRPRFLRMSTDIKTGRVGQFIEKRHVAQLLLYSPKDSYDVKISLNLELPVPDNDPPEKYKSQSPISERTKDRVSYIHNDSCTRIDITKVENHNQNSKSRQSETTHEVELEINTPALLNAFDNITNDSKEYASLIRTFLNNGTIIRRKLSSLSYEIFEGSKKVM
Kind of test: Manganese-dependent ATP hydrolysis by Cet1p. The test is classed as biochemical. As to conditions: full-length Cet1p, 2 mM MnCl2, pH 7.0, 30° C. As to the method:
(§1) (FIG. 8A) Protein titration. Reaction mixtures (10 μl) containing 50 mM Tris HCl (pH 7.0), 5 mM DTT, 2 mM MnCl2, 1 mM [γ^32P]ATP, and either Cet1p, Cet1(201-549)p, or Cet1(246-549)p were incubated for 15 min at 30° C. Pi release is plotted as a function of input protein. (FIG. 8B) Kinetics. Reaction mixtures (100 μl) containing 50 mM Tris HCl (pH 7.0), 5 mM DTT, 2 mM MnCl2, 1 mM [γ^32P]ATP, and either 8, 16, or 32 nM Cet1p were incubated at 30° C. Aliquots (10 μl) were withdrawn at the times indicated and quenched immediately by the addition of […] of 5 M formic acid. Pi release is plotted as a function of time. (FIG. 8C) Hydrolysis of [α^32P]ATP. […] The products were analyzed by TLC. […] An otherwise identical reaction containing 1 mM [γ^32P]ATP was analyzed in parallel; Pi release (●). […]
(§2) The extent of ^32Pi relase from [Υ^32P]ATP during a 15 min reaction was proportional to the amount of input Cetlp protein (FIG. 8A). ^32Pi accumulated with time over 30 min; the rate of reaction varied linearly with Cetlp concentration (FIG. 8B). From a plot of initial rate versus enzyme concentration, a turnover number of 25 s^−1 was calculated. Cetlp catalyzed the quantitative conversion of [α^32P]ATP to [α^32P]ADP. […] No formation of [α^32P]AMP from [α^32P]ATP was detected, even after 20-45 min of incubation, by which time all of the nucleotide had been converted to ADP. […]

In test [2] the target is T2, yeast RNA triphosphatase Cet1p (Saccharomyces cerevisiae, UniProt O13297).
T2 construct: His-tag; made in house; host or cells: Escherichia coli BL21(DE3)
Kind of test: Manganese-dependent ATP hydrolysis by Cet1p. The test is classed as biochemical. Conditions: truncated Cet1(201-549)p. As to the method:
as §1, §2

The target of test [3] is T3, human cap methyltransferase (Hcm1p) (Homo sapiens, UniProt O43148).
T3 construct: His-tag (pET16b leader) (N); made in house; host or cells: Escherichia coli BL21(DE3)
The format is biochemical.

Test [4] has as its target T4, Mce1(1-210)p RNA triphosphatase domain (Mus musculus, UniProt O55236).
T4 construct: The N-terminal portion of Mce1p from residues 1-210 is an autonomous RNA triphosphatase domain; made in house; host or cells: bacteria
T4 sequence (O55236 1-210): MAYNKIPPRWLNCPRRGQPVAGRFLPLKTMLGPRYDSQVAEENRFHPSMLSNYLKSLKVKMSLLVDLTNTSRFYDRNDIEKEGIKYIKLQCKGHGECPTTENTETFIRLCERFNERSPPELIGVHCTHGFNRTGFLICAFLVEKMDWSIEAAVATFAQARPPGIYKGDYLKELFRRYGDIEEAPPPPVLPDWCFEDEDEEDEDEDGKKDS
As to conditions: 0.5 mM divalent cation; cited from earlier work.

By Km is commonly meant the concentration of substrate that gives half-maximal velocity.

T3 sequence (O43148 whole entry): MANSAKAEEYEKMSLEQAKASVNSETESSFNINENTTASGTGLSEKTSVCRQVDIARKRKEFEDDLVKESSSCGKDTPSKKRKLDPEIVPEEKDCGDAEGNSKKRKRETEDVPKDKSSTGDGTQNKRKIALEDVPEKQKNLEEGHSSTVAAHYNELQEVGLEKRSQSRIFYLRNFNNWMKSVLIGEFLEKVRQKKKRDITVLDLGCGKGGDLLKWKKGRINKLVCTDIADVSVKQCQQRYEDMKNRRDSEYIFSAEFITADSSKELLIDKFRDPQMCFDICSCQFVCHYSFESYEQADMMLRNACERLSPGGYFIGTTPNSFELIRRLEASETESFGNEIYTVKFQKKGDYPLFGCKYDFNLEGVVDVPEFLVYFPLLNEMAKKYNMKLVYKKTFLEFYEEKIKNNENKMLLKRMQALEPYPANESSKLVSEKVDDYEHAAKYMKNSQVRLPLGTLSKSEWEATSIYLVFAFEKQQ
Sequence of LEF-4 (P41477 whole entry): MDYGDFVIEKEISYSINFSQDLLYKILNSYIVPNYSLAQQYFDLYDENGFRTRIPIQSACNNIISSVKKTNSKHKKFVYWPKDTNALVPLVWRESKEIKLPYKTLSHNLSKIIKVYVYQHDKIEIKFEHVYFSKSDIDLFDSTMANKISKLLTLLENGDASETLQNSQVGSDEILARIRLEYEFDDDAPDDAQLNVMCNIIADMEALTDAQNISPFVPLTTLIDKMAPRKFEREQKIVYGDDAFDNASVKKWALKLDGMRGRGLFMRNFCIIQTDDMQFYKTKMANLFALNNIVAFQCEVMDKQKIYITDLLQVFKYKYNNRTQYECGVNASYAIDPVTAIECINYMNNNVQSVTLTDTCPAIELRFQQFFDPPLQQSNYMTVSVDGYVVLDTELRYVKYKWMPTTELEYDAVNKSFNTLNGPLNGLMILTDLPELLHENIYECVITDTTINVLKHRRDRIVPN

In the case of `Nc1ncnc2c1ncn2[C@@H]1O[C@H](COP(=O)(O)OP(=O)(O)OP(=O)(O)O)[C@@H](O)[C@H]1O` [ATP], the Km was 800 µM at vaccinia triphosphatase, 43 µM on LEF-4, 2.8 µM in test [1] and 3.3 µM in test [2].
As to `Nc1ncnc2c1ncn2[C@@H]1O[C@H](CSCC[C@H](N)C(=O)O)[C@@H](O)[C@H]1O` [AdoHcy, S-adenosylhomocysteine], the “effect on cap methylation (FIG. 9, lane 4)” value in test [3] (50 μM AdoMet plus 500 μM AdoHcy) was “partially inhibitory”. Also, the “reduction of cap methylation” value in test [3] (100 μM AdoHcy in the presence of 10 μM AdoMet) is listed as 80%.
For the compound `C[S+](CC[C@H](N)C(=O)[O-])C[C@H]1O[C@@H](n2cnc3c(N)ncnc32)[C@H](O)[C@@H]1O` (stereo partly shown) [AdoMet, S-adenosylmethionine], the “AdoMet concentration giving half-maximal activity” value in test [3] (peak glycerol gradient fraction of Hcm1p) is about 25 µM.
For the compound `[Cl-].[Cl-].[Mg+2]` [MgCl2], the “inhibition of RNA triphosphatase activity” value in test [4] was 75%. Moreover, in test [3] (1 mM magnesium), the “effect of magnesium on cap methylation” value was “reduced by an order of magnitude”.
As to `[Cl][Mn][Cl]` [MnCl2], in test [4], the “inhibition of RNA triphosphatase activity” value is 75%.

Values taken from US6420163B1, “Pharmacological targeting of mRNA cap formation” (priority 1998, dated 2002).
